Test results: publication PMC11220827 (Frontiers in Pharmacology, 2024)
“And” between values parts separate entries of the source, which are not always exact repeats. Equal entries are not always repeated. Where two headings read alike, the source gives them in different places.

Key:
ERβ Human Estrogen NHR = molecular target: T1, ERβ Human Estrogen NHR (Homo sapiens, UniProt Q92731); assay: biochemical; type: binding
T1 construct: Panlabs (named as assay provider)
Description: Chemicals that are flagged for a target are tested in follow-up dose-response assays to establish potency of the interaction.
(§1) Relative light units (RLUs) of the CALUX assays were analysed as follows. For agonist assays,
(§2) background values (exposure to DMSO only) were subtracted, and the maximum activity of the
(§3) assay’s reference compound was set to 100%. For antagonist assays, the basal signal (exposure to fixed concentration of agonist only) was set to 100%. Activity of the samples was scaled accordingly,
(§4) resulting in expression of the data as “percentage of maximum reference response”. Graphs were
(§5) generated using the statistical software package GraphPad Prism V5.03. Using these graphs, lowest
(§6) effect concentrations (LOECs) and PC50 concentrations were determined; LOEC is defined as the
(§7) maximum reference compound activity for agonist assays, and 20% of the maximum reference
(§8) compound activity for antagonist assays. The PC50 is defined as the concentration where the activity
(§9) of the sample equals 50% of the maximum activity of the assay’s reference compound.
(§10) the test compound was divided by the amount of estrogens and androgens produced by the solvent
(§11) control-exposed cells. A sample was considered ‘active’ if it decreased the hormone production 0.8-
Pharmacology profiling assays
targets. The list of targets included the original panel of 44 targets (including receptors, ion channels,
transporters and enzymes) recommended by 4 major pharmaceutical companies as significant
reasoned to link to pathological effects.
are considered to represent significant effects (i.e. a “hit”).
around the control level. For several targets, additional concentration effect assays were conducted to
determine the potency (IC50). The concentrations tested (in duplicate) ranged between 30 nM and 100

[1] = for BER, Cmax, total CI5%: PoD 10 nM
Description: For human exposure, the aim is to estimate a safe dose when used in a body lotion or face cream. […] Therefore, metabolism was considered by incorporating a model to characterize the rate of metabolism and then fitted it to the metabolism measured in ex vivo viable skin.
An additional safety factor of 3.3 was applied to account for intra-individual variability.

[2] = Measured plasma concentrations of daidzein from dietary intake; type: in vivo, human; conditions: PoD 10 nM / 3.14 µM
Description: Daidzein is present in soy-derived foods and is consumed in large amounts in Asian countries.

Androgen pathway = tested on: Androgen pathway; set-up: method as in ToxCast; conditions: ref ToxCast, cited from earlier work; as to Androgen pathway: Cell Proliferation, Call: key: Pos = positive result; Neg = negative result; Inc = uncertain/inconclusive result; as to Androgen pathway: Dimerization, Call: key: Pos = positive result; Neg = negative result; Inc = uncertain/inconclusive result; as to Androgen pathway: Receptor binding, Call: key: Pos = positive result; Neg = negative result; Inc = uncertain/inconclusive result; as to Androgen pathway: Reporter protein Agonist, Call: key: Pos = positive result; Neg = negative result; Inc = uncertain/inconclusive result
THRα = tested on: THRα; set-up: method as in ToxCast; conditions: ref ToxCast; cited from earlier work
Estrogen ERα (h) = Estrogen ERα (h) (Homo sapiens, UniProt P03372); assay: biochemical; conditions: read-out: Estrogen ERα (h) (agonist RL): % inhibition @10 µM
TRβ = molecular target: T2, TRβ (Homo sapiens, UniProt P10828)
T2 sequence (P10828 1-461): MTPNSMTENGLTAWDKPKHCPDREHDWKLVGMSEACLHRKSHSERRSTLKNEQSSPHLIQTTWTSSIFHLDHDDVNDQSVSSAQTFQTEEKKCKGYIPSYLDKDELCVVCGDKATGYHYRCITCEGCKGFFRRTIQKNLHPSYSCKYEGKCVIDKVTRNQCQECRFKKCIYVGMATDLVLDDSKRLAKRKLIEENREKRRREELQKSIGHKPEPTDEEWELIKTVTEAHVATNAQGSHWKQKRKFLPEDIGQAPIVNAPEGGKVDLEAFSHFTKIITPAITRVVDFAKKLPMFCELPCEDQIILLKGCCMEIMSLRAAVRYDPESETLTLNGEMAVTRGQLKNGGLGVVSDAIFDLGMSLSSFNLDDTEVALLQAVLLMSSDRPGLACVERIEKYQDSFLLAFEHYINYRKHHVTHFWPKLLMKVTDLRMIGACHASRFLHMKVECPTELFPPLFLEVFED
Description: using the U2-OS based CALUX cytotox bioassay. The cytotoxicity of each test chemical was assessed using the U2-OS based cytotoxicity CALUX bioassay. Concentrations causing >20% reduction of luminescence were considered cytotoxic.
cytotoxicity (relative induction in the cytotoxicity CALUX bioassay > 80%) were used for final
evaluation of analysis results.
induction in the cytotox CALUX bioassay > 80%) were used for final evaluation of analysis results.
All analysis results were expressed in molar (M) final in well.
For determination of the (anti-)ERα, (anti-)AR and (anti-)TRβ CALUX activities, CALUX cells were
seeded in assay medium. Following exposure of the CALUX cells to serial dilutions of the
compounds in triplicate for 24 h, the induction of luciferase production was quantified by measuring
luminescence following addition of the substrate luciferin. For antagonist assays, a fixed
concentration of assay agonist was present in each well, to generate a basal signal. On each plate, a
complete calibration curve for each respective bioassay was also analysed using the relevant reference
compounds. For the analyses in the presence of rat liver S9, 0.03% (v/v) of PB/BNF induced rat liver
S9 mix (including NADPH and an NADPH-regenerating system) was added to the cells directly after
addition of the compounds, which remained there for the duration of the exposure period (24 h) (van
as §1, §2, §3, §4, §5
effect concentrations (LOECs) and PC50 concentrations were determined; LOEC is defined as the […]

[3] = molecular target: T3, human thyroid peroxidase (hTPO) (Homo sapiens, UniProt P07202)
T3 sequence (P07202 19-933): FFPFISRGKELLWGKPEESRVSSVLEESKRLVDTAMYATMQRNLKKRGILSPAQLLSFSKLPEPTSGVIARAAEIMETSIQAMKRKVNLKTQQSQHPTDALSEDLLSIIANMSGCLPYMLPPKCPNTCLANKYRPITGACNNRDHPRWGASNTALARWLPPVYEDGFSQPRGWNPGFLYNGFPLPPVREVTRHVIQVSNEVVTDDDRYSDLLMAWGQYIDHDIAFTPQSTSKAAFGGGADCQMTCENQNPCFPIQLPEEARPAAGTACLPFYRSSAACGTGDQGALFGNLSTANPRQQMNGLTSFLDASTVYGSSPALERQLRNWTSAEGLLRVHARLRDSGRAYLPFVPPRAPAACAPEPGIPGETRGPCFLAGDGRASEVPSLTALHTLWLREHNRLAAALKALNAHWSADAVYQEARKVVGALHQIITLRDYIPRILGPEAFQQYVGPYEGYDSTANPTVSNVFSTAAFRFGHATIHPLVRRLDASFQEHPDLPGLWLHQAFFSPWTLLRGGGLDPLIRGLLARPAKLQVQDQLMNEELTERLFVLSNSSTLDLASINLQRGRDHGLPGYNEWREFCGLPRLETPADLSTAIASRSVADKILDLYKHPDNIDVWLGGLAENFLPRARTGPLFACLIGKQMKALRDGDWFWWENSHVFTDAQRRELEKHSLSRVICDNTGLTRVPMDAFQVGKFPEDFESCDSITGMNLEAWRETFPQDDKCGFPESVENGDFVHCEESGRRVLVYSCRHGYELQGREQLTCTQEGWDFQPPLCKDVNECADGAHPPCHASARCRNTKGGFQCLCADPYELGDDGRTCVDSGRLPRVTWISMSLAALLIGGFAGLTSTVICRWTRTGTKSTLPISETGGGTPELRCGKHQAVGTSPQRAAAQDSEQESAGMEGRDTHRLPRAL
Description: hTPO was derived from Nthy-ori 3-1 cells. Cell lysate containing hTPO in Glycine-NaOH buffer (pH
9.0) was incubated for 30 minutes at 37°C in the presence of serial dilutions of the compounds in
(§12) DMSO (1% compound stock in incubation mixture).
was measured on a Berthold luminometer.
(§13) Preincubation with rat liver S9 fraction
(§14) To assess the effect of metabolism on the activity of the test
compound for these assays, preincubations with rat liver S9 were performed.

Transthyretin (TTR) = Transthyretin (TTR) (Homo sapiens, UniProt P02766)
Description: DMSO (1% compound stock in incubation mixture). The incubation mixture was transferred to 96 -
was measured on a Berthold luminometer.
(§15) Serial dilutions of the compounds were incubated in Tris -buffer (pH 8.0) overnight at 4°C in the
(§16) incubation mixture). After incubation, TTR-bound and free T4 were separated on a Bio-Gel P-6DG
(§17) column. The eluate was added to assay medium after which TRβ CALUX cells were exposed for 24 h
(see CALUX bioassays). For this TRβ CALUX exposure, serum-free assay medium was used.

H295R cells [4] = tested on: H295R cells
Description: as §12
was measured on a Berthold luminometer.
as §15, §16, §17
(§18) For this TRβ CALUX exposure, serum-free assay medium was used.
(§19) wells plates in assay medium, and exposed for 48h to a serial dilution of the compound in triplicate
(§20) exposure, the assay medium was analysed on the ERα and AR CALUX bioassays as described
(§21) Changes in hormone levels compared to a vehicle control exposure
as §13, §14
(§22) compound for these assays, preincubations with rat liver S9 were performed. Compounds (10 μl
(§23) DMSO stock solution) were incubated for 0 h (control) or 3 h (test condition) in a total volume of 1
(§24) ml TRIS buffer in the presence of 1% (v/v) PB/BNF induced rat liver S9 mix (including NADPH and
(§25) an NADPH-regenerating system). After incubation, the reaction was stopped by the addition of ice
(§26) cold acetone, and samples were frozen to stimulate protein precipitation. After thawing, the
(§27) precipitated protein fraction was subsequently removed by centrifugation. The supernatant, cont aining
(§28) the metabolites and any remaining non-metabolised parent compound, was concentrated under a
(§29) gentle nitrogen flow. After evaporating to dryness, the sample was taken up in 50 μl DMSO followed
(§30) by the addition of 50 μl TRIS buffer. This extract was used for the exposure of the hTPO inhibition,
as §1, §2, §3, §4, §5, §6, §7, §8, §9, §10, §11

H295R cells [5] = tested on: H295R cells; remark: listed apart in the source
Description: as §12
was measured on a Berthold luminometer.
as §15, §16, §17, §18, §19, §20, §21, §13, §14, §22, §23, §24, §25, §26, §27, §28, §29, §30, §1, §2, §3, §4, §5, §6, §7, §8, §9, §10, §11

HepG2 and MCF-7 cells = conditions: 24 h
[6] = at 25°C, in vitro; ref Nan et al. (2014); cited from earlier work
rats = conditions: cited from earlier work
dogs = conditions: male and female dogs; ref McClain et al. 2005; cited from earlier work
Sprague-Dawley rats = conditions: cited from earlier work
[7] = tested on: Syrian Hamster Embryo (SHE) cells; conditions: ref SCCS 2022; cited from earlier work
mice = conditions: in the diet; ref SCCS 2022; cited from earlier work
[8] = +S9 (preincubation with rat liver S9)

O=c1c(-c2ccc(O)cc2)coc2cc(O)ccc12 [Daidzein, DAIDZEIN]
ERβ LOEC (binding to receptor) (ERβ Human Estrogen NHR; pharmacology profiling, LOEC = 10% of maximum reference compound activity): 3.25 nM and 3.2 nM
inhibition at 10 µM (ERβ Human Estrogen NHR; read-out: ERβ Human Estrogen NHR Binding (Agonist): % inhibition @10 µM): 100%
BERs derived using unbound plasma concentrations ([1]; 0.02% daidzein): 100–250
BER, Cmax, total CI5% ([1]; body lotion with 0.02% daidzein): 10/0.68 = 14.7
BER, Cmax, total CI5% ([1]; body lotion with 0.1% daidzein): 10/3.37 = 3.0
BER, highest measured dietary plasma concentration [2]: 0.003
Androgen pathway: Cell Proliferation, Call (Androgen pathway): Neg
Androgen pathway: Dimerization, Call (Androgen pathway): Neg
Androgen pathway: Receptor binding, Call (Androgen pathway): Neg
Androgen pathway: Reporter protein Agonist, Call (Androgen pathway): Neg
Androgen pathway: Reporter protein Antagonist, Call (Androgen pathway): Inc
Androgen pathway: mRNA induction, Call (Androgen pathway): Neg
AC50 (Androgen pathway; read-out: Androgen pathway: Reporter protein Antagonist, AC50): 36.1 µM
Thyroid pathway: Receptor binding (THRα), Call (THRα): Neg (Neg = negative result)
inhibition at 10 µM (Estrogen ERα (h)): 100%

O=c1c(-c2ccc(O)cc2)coc2cc(O)cc(O)c12 [Genistein, 5,7-DIHYDROXY-3-(4-HYDROXYPHENYL)-4-BENZOPYRONE]
Anti-TRß antithyroid LOEC, +S9 (TRβ; +S9 (rat liver)): >−5 Log M
Anti-TRß antithyroid LOEC, −S9 (TRβ; −S9): >−5 Log M
LOEC for hTPO inhibition [3]: 19 ± 8.9 µM
TPO LOEC, Inhibition [3]: 19 µM
hTPO inhibition (thyroid) LOEC, +S9 [3, 8]: >−4.7 Log M
hTPO inhibition (thyroid) LOEC, −S9 ([3]; −S9): −4.7 Log M
TTR LOEC, Inhibition of binding of T4 to TTR (Transthyretin (TTR)): 0.21 µM
TTR binding (thyroid) LOEC, +S9 (Transthyretin (TTR); [8]): −6.7 Log M
LOEC for inhibition of TTR binding (Transthyretin (TTR); inhibition of binding of T4 to TTR): 2.1 × 10^−7 ± 6.7 × 10^−8
TTR binding (thyroid) LOEC, −S9 (Transthyretin (TTR); −S9): −6.7 Log M
Estrogen synthesis, Increase/decrease (H295R cells [4]): No effect
Steroidogenesis (ERα) 17β-estradiol LOEC, +S9 (H295R cells [4]; [8]): >−6.7 Log M
Steroidogenesis (ERα) 17β-estradiol LOEC, −S9 (H295R cells [4]; −S9): >−6 Log M
Steroidogenesis (AR) Testosterone LOEC, +S9 (H295R cells [5]; [8]): −5.7 Log M
LOEC, androgen synthesis (impaired) (H295R cells [5]; H295R): 3.2 × 10^−6 ± 0 M
Steroidogenesis (AR) Testosterone LOEC, −S9 (H295R cells [5]; −S9): −5.5 Log M
Metabolism by HepG2 or MCF-7 cells (HepG2 and MCF-7 cells): metabolized by both cell types
pKa (dissociation constant) [6]: 7.25 ± 0.84
NOAEL, 13 weeks (rats; male and female rats, feed 0, 5, 50 or 500 mg/kg/day, ref McClain et al. 2006): 50 mg/kg/day
NOAEL, 52 weeks (rats; male and female rats, feed, based on mild hepatic effects, ref McClain et al. 2006): 50 mg/kg/day
NOAEL from repeat dose studies (rats; ref McClain et al., 2006): above 50 mg/kg/day
NOAEL, 4 weeks (dogs): > 500 mg/kg/day
NOAEL, 52 weeks (dogs): > 500 mg/kg/day
NOAEL, female rats (Sprague-Dawley rats; 5 ppm in feed, ref NTP 2008): 0.5 mg/kg
NOAEL, male rats (PoD) (Sprague-Dawley rats; 5 ppm in feed, ref NTP 2008): 0.3 mg/kg
LOAEL, male rats (Sprague-Dawley rats; ref SCCS 2022): 7 mg/kg
Cell transformation assay (SHE cells) result [7]: one was positive
P53-/- Mouse Tumorigenesis Assay result (mice): negative
